The target of this test is T1, Acid ceramidase (Homo sapiens, UniProt Q13510).
T1 sequence (Q13510 22-395): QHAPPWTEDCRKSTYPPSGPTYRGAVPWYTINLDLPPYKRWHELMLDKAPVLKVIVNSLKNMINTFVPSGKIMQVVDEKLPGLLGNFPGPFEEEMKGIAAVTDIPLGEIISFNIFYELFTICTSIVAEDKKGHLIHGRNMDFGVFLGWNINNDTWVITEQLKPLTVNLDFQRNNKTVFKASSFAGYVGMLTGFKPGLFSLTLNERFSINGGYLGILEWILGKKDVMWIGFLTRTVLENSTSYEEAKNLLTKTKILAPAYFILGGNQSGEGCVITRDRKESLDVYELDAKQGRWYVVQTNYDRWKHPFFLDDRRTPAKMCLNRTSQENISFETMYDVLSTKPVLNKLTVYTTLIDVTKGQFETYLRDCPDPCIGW
In words: Acid ceramidase assay (AC in vitro IC50). It counts as biochemical. The note with it: Acid ceramidase assay data of example compounds.
With `CC(C)n1ccc(COc2ccc(-c3cn(C(=O)NCC4CCN(c5ccccc5)C4)cn3)cc2)n1` (centres unmarked) [AC2020601-0448, 4-(4-((1-isopropyl-1H-pyrazol-3-yl)methoxy)phenyl)-N-((1-phenylpyrrolidin-3-yl)methyl)-1H-imidazole-1-carboxamide], the IC50 is less than 0.3 µM.

For `Cn1cnc(COc2ccc(-c3cn(C(=O)NCC4CCN(c5ccccc5)C4)cn3)cc2)n1` (centres unmarked) [AC2020601-0447, 4-(4-((1-methyl-1H-1,2,4-triazol-3-yl)methoxy)phenyl)-N-((1-phenylpyrrolidin-3-yl)methyl)-1H-imidazole-1-carboxamide], the IC50 is less than 0.3 µM.

As for `N#Cc1cccnc1COc1ccc(-c2cn(C(=O)NCC3CCN(c4ccccc4)C3)cn2)cc1` (centres unmarked) [AC2020601-0451, 4-(4-((3-cyanopyridin-2-yl)methoxy)phenyl)-N-((1-phenylpyrrolidin-3-yl)methyl)-1H-imidazole-1-carboxamide], the IC50 was less than 0.3 µM.

As for `O=C(NCCCCc1ccccc1)n1cnc(-c2ccc(OCc3ccncc3)cc2)c1` [AC2020601-0323, N-(4-phenylbutyl)-4-(4-(pyridin-4-ylmethoxy)phenyl)-1H-imidazole-1-carboxamide], the IC50 was less than 0.3 µM.

For `CS(=O)(=O)c1ccc(COc2ccc(-c3cn(C(=O)NCC4CCN(c5ccc6c(c5)CCO6)C4)cn3)cc2)cc1` (centres unmarked) [AC2020601-0506, N-((1-(2,3-dihydrobenzofuran-5-yl)pyrrolidin-3-yl)methyl)-4-(4-(4-(methylsulfonyl)benzyloxy)phenyl)-1H-imidazole-1-carboxamide], the IC50 is less than 0.3 µM.

The molecule `CCS(=O)(=O)c1ccc(COc2ccc(-c3cn(C(=O)NCC4CCN(c5ccccc5)C4)cn3)cc2)nn1` (centres unmarked) [AC2020601-0482, 4-(4-((6-(ethylsulfonyl)pyridazin-3-yl)methoxy)phenyl)-N-((1-phenylpyrrolidin-3-yl)methyl)-1H-imidazole-1-carboxamide] returned an IC50 of less than 0.3 µM.

In turn, `CN(CCCCc1ccccc1)C(=O)n1cnc(-c2ccc(OCc3ccccc3)cc2)c1` [AC2020601-0278, 4-(4-(benzyloxy)phenyl)-N-methyl-N-(4-phenylbutyl)-1H-imidazole-1-carboxamide] showed a concentration for half-maximal inhibition (IC50) greater than 3 µM.

For `CS(=O)(=O)c1ccc(COc2ccc(-c3cn(C(=O)NCCCOc4ccccc4)cn3)cc2)cc1` [AC2020601-0294, 4-(4-((4-(methylsulfonyl)benzyl)oxy)phenyl)-N-(3-phenoxypropyl)-1H-imidazole-1-carboxamide], the IC50 is less than 0.3 µM.

The molecule `CS(=O)(=O)c1ccc(COc2ccc(-c3cn(C(=O)NCC4CN(c5cccc(Cl)c5)C4)cn3)cc2)cc1` [AC2020601-0407, N-((1-(3-chlorophenyl)azetidin-3-yl)methyl)-4-(4-((4-(methylsulfonyl)benzyl)oxy)phenyl)-1H-imidazole-1-carboxamide] yielded an IC50 of less than 0.3 µM.

On to `NC(=O)c1cccnc1COc1ccc(-c2cn(C(=O)NCC3CCN(c4ccccc4)C3)cn2)cc1` (centres unmarked) [AC2020601-0438, 2-((4-(1-(((1-phenylpyrrolidin-3-yl)methyl)carbamoyl)-1H-imidazol-4-yl)phenoxy)methyl)nicotinamide], for which the IC50 was less than 0.3 µM.

The molecule `Cn1ncc(COc2ccc(-c3cn(C(=O)NCC4CCN(c5ccccc5)C4)cn3)cc2)n1` (centres unmarked) [AC2020601-0488, 4-(4-((2-methyl-2H-1,2,3-triazol-4-yl)methoxy)phenyl)-N-((1-phenylpyrrolidin-3-yl)methyl)-1H-imidazole-1-carboxamide] gave an IC50 of less than 0.3 µM.

`CS(=O)(=O)c1ccc(COc2ccc(-c3cn(C(=O)NC[C@H]4CCN(c5ccccc5)C4)cn3)cc2)cc1` (single isomer, unassigned) [AC2020601-0384b] came in with an IC50 of less than 0.3 µM.

`C[C@@H](Oc1ccc(-c2cn(C(=O)NCCCOc3ccccc3)cn2)cc1)c1ccc(S(C)(=O)=O)cc1` (single isomer, unassigned) [AC2020601-0349] returned an IC50 of less than 0.3 µM.

The molecule `CS(=O)(=O)c1ccc(COc2ccc(-c3cn(C(=O)NCC4CN(Cc5ccccc5)C4)cn3)cc2)cc1` [AC2020601-0377, N-((1-benzylazetidin-3-yl)methyl)-4-(4-((4-(methylsulfonyl)benzyl)oxy)phenyl)-1H-imidazole-1-carboxamide] came in with an IC50 greater than 3 µM.

Regarding `O=C(NCC1CCN(c2ccccc2)C1)n1cnc(-c2ccc(OCc3cccnn3)cc2)c1` (centres unmarked) [AC2020601-0472, N-((1-phenylpyrrolidin-3-yl)methyl)-4-(4-(pyridazin-3-ylmethoxy)phenyl)-1H-imidazole-1-carboxamide], the IC50 was less than 0.3 µM.

`CS(=O)(=O)c1ccc(COc2ccc(-c3cn(C(=O)NCCCOc4ccc(C#N)cc4)cn3)cc2)cc1` [AC2020601-0373, N-(3-(4-cyanophenoxy)propyl)-4-(4-(4-(methylsulfonyl)benzyloxy)phenyl)-1H-imidazole-1-carboxamide] came in with an IC50 of less than 0.3 µM.

Molecule `CN1CCN(S(=O)(=O)c2ccc(COc3ccc(-c4cn(C(=O)NCCCOc5ccccc5)cn4)cc3)cc2)CC1` [AC2020601-0342, 4-(4-((4-((4-methylpiperazin-1-yl)sulfonyl)benzyl)oxy)phenyl)-N-(3-phenoxypropyl)-1H-imidazole-1-carboxamide] gave an IC50 of less than 0.3 µM.

In turn, `CS(=O)(=O)c1ccc(COc2ccc(-c3cn(C(=O)NCCN4Cc5ccccc5C4)cn3)cc2)cc1` [AC2020601-0402, N-(2-(isoindolin-2-yl)ethyl)-4-(4-(4-(methylsulfonyl)benzyloxy)phenyl)-1H-imidazole-1-carboxamide] displayed an IC50 greater than 3 µM.

In turn, `CS(=O)(=O)c1ccc(COc2ccc(-c3cn(C(=O)NCCCCc4ccccc4)cn3)cc2)cc1` [AC2020601-0243, 4-(4-((4-(methylsulfonyl)benzyl)oxy)phenyl)-N-(4-phenylbutyl)-1H-imidazole-1-carboxamide] displayed an IC50 of less than 0.3 µM.

`CCS(=O)(=O)c1ccc(COc2ccc(-c3cn(C(=O)NCC4CCN(c5ccccc5)C4)cn3)cc2)c(C(N)=O)c1` (centres unmarked) [AC2020601-0431, 4-(4-(2-carbamoyl-4-(ethylsulfonyl)benzyloxy)phenyl)-N-((1-phenylpyrrolidin-3-yl)methyl)-1H-imidazole-1-carboxamide] yielded an IC50 of less than 0.3 µM.

Turning to `CS(=O)(=O)c1ccc(COc2ccc(-c3cn(C(=O)NCC4CCN(c5ccc(F)cn5)C4)cn3)cc2)cc1` (centres unmarked) [AC2020601-0497, N-((1-(5-fluoropyridin-2-yl)pyrrolidin-3-yl)methyl)-4-(4-((4-(methylsulfonyl)benzyl)oxy)phenyl)-1H-imidazole-1-carboxamide], the IC50 was less than 0.3 µM.

`CN1CCN(c2cccc(COc3ccc(-c4cn(C(=O)NCC5CCN(c6ccccc6)C5)cn4)cc3)c2)CC1=O` (centres unmarked) [AC2020601-0434, 4-(4-(3-(4-methyl-3-oxopiperazin-1-yl)benzyloxy)phenyl)-N-((1-phenylpyrrolidin-3-yl)methyl)-1H-imidazole-1-carboxamide] registered an IC50 of less than 0.3 µM.

`CS(=O)(=O)c1ncc(COc2ccc(-c3cn(C(=O)NCC4CCN(c5ccccc5)C4)cn3)cc2)cn1` (centres unmarked) [AC2020601-0477, 4-(4-((2-(methylsulfonyl)pyrimidin-5-yl)methoxy)phenyl)-N-((1-phenylpyrrolidin-3-yl)methyl)-1H-imidazole-1-carboxamide] displayed an IC50 of less than 0.3 µM.

Take `O=C(NCCCOc1ccccc1)n1cnc(-c2ccc(OCc3ccc(S(=O)(=O)N4CCOCC4)cc3)cc2)c1` [AC2020601-0347, 4-(4-((4-(morpholinosulfonyl)benzyl)oxy)phenyl)-N-(3-phenoxypropyl)-1H-imidazole-1-carboxamide]: the IC50 is less than 0.3 µM.

`CC(C)n1cncc1COc1ccc(-c2cn(C(=O)NCC3CCN(c4ccccc4)C3)cn2)cc1` (centres unmarked) [AC2020601-0478, 4-(4-((1-isopropyl-1H-imidazol-5-yl)methoxy)phenyl)-N-((1-phenylpyrrolidin-3-yl)methyl)-1H-imidazole-1-carboxamide]: the IC50 is less than 0.3 µM.

Molecule `O=C(NCC1CC1)n1cnc(-c2ccc(OCc3ccc(F)cc3)cc2)c1` [AC2020601-0206, N-(cyclopropylmethyl)-4-(4-(4-fluorobenzyloxy)Vphenyl)-1H-imid azole-1-carboxamide] returned an IC50 of less than 0.3 µM.

Take `CN1CCN(c2cccc(COc3ccc(-c4cn(C(=O)NCC5CN(c6ccccc6)C5)cn4)cc3)c2)CC1=O` [AC2020601-0449, 4-(4-(3-(4-methyl-3-oxopiperazin-1-yl)benzyloxy)phenyl)-N-((1-phenylazetidin-3-yl)methyl)-1H-imidazole-1-carboxamide]: the IC50 was less than 0.3 µM.

Turning to `CS(=O)(=O)c1ccc(COc2ccc(-c3cn(C(=O)NCC4CCN(c5cccc(C(F)(F)F)c5)C4)cn3)cc2)cc1` (centres unmarked) [AC2020601-0498, 4-(4-((4-(methylsulfonyl)benzyl)oxy)phenyl)-N-((1-(3-(trifluoromethyl)phenyl)pyrrolidin-3-yl)methyl)-1H-imidazole-1-carboxamide], the IC50 was less than 0.3 µM.

`O=C(NCCCCc1ccccc1)n1cnc(-c2ccc(OCc3cccnc3)cc2)c1` [AC2020601-0276, N-(4-phenylbutyl)-4-(4-(pyridin-3-ylmethoxy)phenyl)-1H-imidazole-1-carboxamide] registered an IC50 of less than 0.3 µM.

Take `CCCCCCNC(=O)n1cnc(-c2ccccc2OCc2ccccc2)c1` [AC2020601-0199, 4-(2-(benzyloxy)phenyl)-N-hexyl-1H-imidazole-1-carboxamide]: the IC50 is less than 0.3 µM.

Molecule `NS(=O)(=O)c1ccc(COc2ccc(-c3cn(C(=O)NCCCOc4ccccc4)cn3)cc2)cc1` [AC2020601-0324] returned an IC50 of less than 0.3 µM.

Take `CS(=O)(=O)Nc1ccc(COc2ccc(-c3cn(C(=O)NCCCOc4ccccc4)cn3)cc2)cc1` [AC2020601-0327, 4-(4-((4-(methylsulfonamido)benzyl)oxy)phenyl)-N-(3-phenoxypropyl)-1H-imidazole-1-carboxamide]: the IC50 is less than 0.3 µM.

Values taken from patent US20250145598A1, “ACID CERAMIDASE INHIBITORS AND USES THEREOF” (The Regents of the University of California, priority 2021, published 2025).
